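Five concentrations, 48 hours, 96-well plates. Definition used: TGI = concentration required for complete inhibition of growth.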
What was measured:
Test in all cases: NCI anticancer screen, dose series, 48 h
[1] = test system: SF-295 CNS
[2] = test system: OVCAR-3 ovarian
[3] = test system: MDA-MB-231 breast
[4] = test system: SNB-19 CNS
[5] = test system: DU-145 prostate
[6] = test system: SW-620 colon
[7] = test system: 786-0 renal
[8] = test system: TK-10 renal
[9] = test system: HOP-92 NSCLC
[10] = test system: SF-268 CNS
[11] = test system: KM12 colon
[12] = test system: M14 melanoma
[13] = test system: T-47D breast
[14] = test system: NCI/ADR-RES ovarian
[15] = test system: NCI-H460 lung
[16] = test system: NCI-H522 lung
[17] = test system: SF-539 CNS
[18] = test system: NCI-H23 lung
[19] = test system: HS 578T breast
[20] = test system: K-562 leukemia
[21] = test system: UACC-62 melanoma
[22] = test system: MDA-N
[23] = test system: MOLT-4 leukemia
[24] = test system: RXF 393 renal
[25] = test system: U251 CNS
[26] = test system: PC-3 prostate
[27] = test system: MCF7 breast
[28] = test system: OVCAR-8 ovarian
[29] = test system: RPMI-8226 leukemia
[30] = test system: HCC-2998 colon
[31] = test system: IGROV1 ovarian
[32] = test system: OVCAR-4 ovarian
[33] = test system: SK-MEL-5 melanoma
[34] = test system: A549 NSCLC
[35] = test system: HCT-15 colon
[36] = test system: EKVX NSCLC
[37] = test system: SK-OV-3 ovarian
[38] = test system: ACHN renal
[39] = test system: HOP-62 NSCLC
[40] = test system: CCRF-CEM leukemia
[41] = test system: COLO 205 colon
[42] = test system: SN12C renal
[43] = test system: CAKI-1 renal
[44] = test system: UACC-257 melanoma
[45] = test system: HCT-116 colon
[46] = test system: LOX IMVI melanoma
[47] = test system: NCI-H226 lung
[48] = test system: MDA-MB-435
[49] = test system: SK-MEL-2 melanoma
[50] = test system: HL-60(TB) leukemia
[51] = test system: HT29 colon
[52] = test system: UO-31 renal
[53] = test system: OVCAR-5 ovarian
[54] = test system: BT-549 breast
[55] = test system: A498 renal
[56] = test system: MALME-3M melanoma
[57] = test system: SNB-75 CNS
[58] = test system: SK-MEL-28 melanoma

Structure (SMILES): NC(=O)NNCc1ccccc1
- TGI [1]: > 100 µM
- TGI [2]: > 100 µM
- TGI [3]: > 100 µM
- TGI [4]: > 100 µM
- TGI [5]: > 100 µM
- TGI [6]: > 100 µM
- TGI [7]: > 100 µM
- TGI [8]: > 100 µM
- TGI [9]: > 100 µM
- TGI [10]: > 100 µM
- TGI [11]: > 100 µM
- TGI [12]: > 100 µM
- TGI [13]: > 100 µM
- TGI [14]: > 100 µM
- TGI [15]: > 100 µM
- TGI [16]: > 100 µM
- TGI [17]: > 100 µM
- TGI [18]: > 100 µM
- TGI [19]: > 100 µM
- TGI [20]: > 100 µM
- TGI [21]: > 100 µM
- TGI [22]: > 100 µM
- TGI [23]: > 100 µM
- TGI [24]: > 100 µM
- TGI [25]: > 100 µM
- TGI [26]: > 100 µM
- TGI [27]: > 100 µM
- TGI [28]: > 100 µM
- TGI [29]: > 100 µM
- TGI [30]: > 100 µM
- TGI [31]: > 100 µM
- TGI [32]: > 100 µM
- TGI [33]: > 100 µM
- TGI [34]: > 100 µM
- TGI [35]: > 100 µM
- TGI [36]: > 100 µM
- TGI [37]: > 100 µM
- TGI [38]: > 100 µM
- TGI [39]: > 100 µM
- TGI [40]: > 100 µM
- TGI [41]: > 100 µM
- TGI [42]: > 100 µM
- TGI [43]: > 100 µM
- TGI [44]: > 100 µM
- TGI [45]: > 100 µM
- TGI [46]: > 100 µM
- TGI [47]: > 100 µM
- TGI [48]: > 100 µM
- TGI [49]: > 100 µM
- TGI [50]: > 100 µM
- TGI [51]: > 100 µM
- TGI [52]: > 100 µM
- TGI [53]: > 100 µM
- TGI [54]: > 100 µM
- TGI [55]: > 100 µM

Structure (SMILES): CC[C@]1(O)CC(OC2CC(N(C)C)C(O)C(C)O2)c2c(cc3c(c2O)C(=O)c2c(O)cccc2C3=O)[C@@H]1C(=O)OC (stereo partly specified)
- TGI [1]: 3.31 µM
- TGI [2]: 5.67 µM
- TGI [3]: 4.2 µM
- TGI [4]: 7.03 µM
- TGI [5]: 12.9 µM
- TGI [6]: 3.95 µM
- TGI [7]: 5.58 µM
- TGI [8]: 5.07 µM
- TGI [9]: 1.51 µM
- TGI [10]: 2.2 µM
- TGI [11]: 3.2 µM
- TGI [12]: 2.07 µM
- TGI [13]: 5.54 µM
- TGI [14]: 3.95 µM
- TGI [15]: 3.46 µM
- TGI [16]: 1.65 µM
- TGI [17]: 2.51 µM
- TGI [18]: 2.47 µM
- TGI [19]: 4.21 µM
- TGI [20]: 0.982 µM
- TGI [21]: 0.904 µM
- TGI [56]: 1.01 µM
- TGI [22]: 1.92 µM
- TGI [23]: 0.677 µM
- TGI [24]: 1.76 µM
- TGI [25]: 5.57 µM
- TGI [57]: 1.42 µM
- TGI [26]: 1.8 µM
- TGI [27]: 6.17 µM
- TGI [28]: 5.11 µM
- TGI [30]: 1.54 µM
- TGI [58]: 3.04 µM
- TGI [31]: 3.21 µM
- TGI [32]: 1.49 µM
- TGI [33]: 0.941 µM
- TGI [34]: 6.59 µM
- TGI [35]: 2.75 µM
- TGI [36]: 3.86 µM
- TGI [37]: 2.18 µM
- TGI [38]: 0.963 µM
- TGI [39]: 2.14 µM
- TGI [40]: 3.39 µM
- TGI [41]: 3.79 µM
- TGI [42]: 6.85 µM
- TGI [43]: 0.377 µM
- TGI [44]: 1.88 µM
- TGI [45]: 10.4 µM
- TGI [46]: 0.635 µM
- TGI [47]: 2.17 µM
- TGI [48]: 1.44 µM
- TGI [49]: 1.82 µM
- TGI [51]: 5.09 µM
- TGI [52]: 0.635 µM
- TGI [53]: 13.9 µM
- TGI [54]: 4.97 µM
- TGI [55]: 1.13 µM

Structure (SMILES): CCCCCCCCCCCCNC(C)=O
- TGI [1]: 34.4 µM
- TGI [2]: 40.1 µM
- TGI [3]: 28.6 µM
- TGI [4]: 31.2 µM
- TGI [5]: > 100 µM
- TGI [6]: 30.9 µM
- TGI [7]: 32.5 µM
- TGI [8]: 31.6 µM
- TGI [9]: 19.2 µM
- TGI [10]: 29.5 µM
- TGI [11]: 35.7 µM
- TGI [12]: 32.6 µM
- TGI [13]: 66.3 µM
- TGI [14]: 33.3 µM
- TGI [15]: 32.7 µM
- TGI [16]: 27.2 µM
- TGI [17]: 29.9 µM
- TGI [18]: 29.9 µM
- TGI [19]: 31.1 µM
- TGI [21]: 30.2 µM
- TGI [56]: 34.5 µM
- TGI [22]: 31 µM
- TGI [24]: 43.4 µM
- TGI [25]: 30.1 µM
- TGI [57]: 55.8 µM
- TGI [26]: 28.4 µM
- TGI [27]: 32.4 µM
- TGI [28]: 44.5 µM
- TGI [29]: 30.7 µM
- TGI [30]: 37.5 µM
- TGI [58]: 31.4 µM
- TGI [33]: 30.4 µM
- TGI [34]: > 100 µM
- TGI [35]: 33.1 µM
- TGI [36]: 25.6 µM
- TGI [37]: 29.1 µM
- TGI [38]: 70 µM
- TGI [39]: 28.9 µM
- TGI [40]: 32.7 µM
- TGI [41]: 31.6 µM
- TGI [42]: 37 µM
- TGI [43]: 39.3 µM
- TGI [44]: 63.9 µM
- TGI [45]: 37 µM
- TGI [46]: 23.1 µM
- TGI [47]: 35.9 µM
- TGI [48]: 35.4 µM
- TGI [49]: 28.1 µM
- TGI [51]: 33.6 µM
- TGI [52]: 46.9 µM
- TGI [54]: 30.8 µM
- TGI [55]: 68 µM

Structure (SMILES): CC(=O)OC1=c2ccccc2=C(O)C2C1C=NN2C(C)=O (stereo unspecified)
- TGI [1]: > 100 µM
- TGI [2]: > 100 µM
- TGI [3]: > 100 µM
- TGI [4]: > 100 µM
- TGI [5]: > 100 µM
- TGI [6]: > 100 µM
- TGI [7]: > 100 µM
- TGI [8]: > 100 µM
- TGI [9]: > 100 µM
- TGI [10]: > 100 µM
- TGI [11]: > 100 µM
- TGI [12]: > 100 µM
- TGI [13]: > 100 µM
- TGI [14]: > 100 µM
- TGI [15]: > 100 µM
- TGI [16]: > 100 µM
- TGI [17]: > 100 µM
- TGI [18]: > 100 µM
- TGI [19]: > 100 µM
- TGI [20]: > 100 µM
- TGI [21]: > 100 µM
- TGI [56]: > 100 µM
- TGI [22]: > 100 µM
- TGI [23]: > 100 µM
- TGI [24]: > 100 µM
- TGI [25]: > 100 µM
- TGI [57]: > 100 µM
- TGI [26]: > 100 µM
- TGI [27]: > 100 µM
- TGI [28]: > 100 µM
- TGI [29]: > 100 µM
- TGI [30]: > 100 µM
- TGI [58]: > 100 µM
- TGI [31]: > 100 µM
- TGI [32]: > 100 µM
- TGI [33]: > 100 µM
- TGI [34]: > 100 µM
- TGI [35]: > 100 µM
- TGI [36]: > 100 µM
- TGI [37]: > 100 µM
- TGI [38]: > 100 µM
- TGI [39]: > 100 µM
- TGI [40]: > 100 µM
- TGI [41]: > 100 µM
- TGI [42]: > 100 µM
- TGI [43]: > 100 µM
- TGI [44]: > 100 µM
- TGI [45]: > 100 µM
- TGI [46]: > 100 µM
- TGI [47]: > 100 µM
- TGI [48]: > 100 µM
- TGI [49]: > 100 µM
- TGI [50]: > 100 µM
- TGI [51]: > 100 µM
- TGI [52]: > 100 µM
- TGI [53]: > 100 µM
- TGI [54]: > 100 µM
- TGI [55]: > 100 µM

— PubChem BioAssay (NCI)
